Reference: US20240425583A1, “METHODS AND COMPOSITIONS RELATED TO MCL-1 AND BIM HETERODIMER ANTIBODIES” (priority 2021, published 2024)
Values belong to the molecule of their own block, whether it stands above or below them.

Tests used:
[1] = biological target: T1, BCL2:BIM complex (Homo sapiens, UniProt P10415); assay: Flow cytometry of BH3 mimetic treated cells, heterodimer-specific vs monomer antibodies (FIG. 17); assay type: cell-based; parameters: endogenous in cells; settings: detected with 2H3 (BCL2:BIM) and F05 (MCL-1:BIM)
T1 sequence (P10415 whole entry, one chain of several): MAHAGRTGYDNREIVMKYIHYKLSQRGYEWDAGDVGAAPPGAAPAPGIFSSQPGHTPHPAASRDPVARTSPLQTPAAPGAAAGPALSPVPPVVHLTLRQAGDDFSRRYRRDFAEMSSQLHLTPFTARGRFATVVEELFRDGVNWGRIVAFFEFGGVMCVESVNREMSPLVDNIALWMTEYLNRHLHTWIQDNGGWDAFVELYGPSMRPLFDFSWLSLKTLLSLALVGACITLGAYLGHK
Procedure: This shift is detected by MCL-1:BIM specific antibody (F05) relative to total MCL-1 in the cell. In this experiment, cells are treated with specific BCL2 targeted BH3 mimetic (AZD4320, Medchemexpress), fixed, permeabilized, and stained with heterodimer-specific antibodies and standard antibodies against monomers. Signals are measured on FLOW Cytometer, show relative signal and the data shown in FIG. 17 is a ratio of complex/monomer signal. FIG. 17 is a graph showing a BCL2:BIM complex specific antibody that tracts with complex disruption by a BH3 mimetic.

[2] = biological target: BCLXL: BIM (Homo sapiens, UniProt Q07817); assay: PRIMAB intra-cellular immunofluorescent staining and flow cytometry in U266B1 cells (FIG. 19); settings: BCLXL primed U266B1 cells, HSBXB PRIMAB
Sequence of BCLXL: BIM (Q07817 whole entry): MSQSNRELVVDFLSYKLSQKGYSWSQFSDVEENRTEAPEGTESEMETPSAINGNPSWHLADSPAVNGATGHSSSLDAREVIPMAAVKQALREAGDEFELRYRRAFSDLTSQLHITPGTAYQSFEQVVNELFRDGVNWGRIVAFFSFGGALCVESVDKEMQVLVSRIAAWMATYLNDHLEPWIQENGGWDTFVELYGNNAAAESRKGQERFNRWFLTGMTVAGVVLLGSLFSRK
Procedure: Priming complexes in leukemia cells were measured by intra-cellular immunofluorescent staining with PRIMABs and detected by flow cytometry.

[3] = test system: Mcl-1:Bim complex; assay: Heterodimer to monomer ratio by flow cytometry in UKE-1 cells (FIG. 18); assay type: cell-based; settings: A1155463 treated UKE-1 cells, detected with F05
Procedure: (§1) FIG. 18 is a graph showing a ratio of measured heterodimer to monomer in Bcl-xL dependent cell lines: Bcl-2:Bim, Mcl-1:Bim, and Bcl-xL:Bim. Bcl-xL:Bim shifts against Bcl-xL and Mcl-1 upon treatment. In this experiment, a shift away from the complex is detected when the sample is treated with BCLXL targeted BH3 mimetic (A1155463).

[4] = test system: Mcl-1:Bim complex; assay: Heterodimer to monomer ratio by flow cytometry in SET2 cells (FIG. 18); assay type: cell-based; settings: A1155463 treated SET2 cells, detected with F05
Procedure: as §1

[5] = biological target: T1, BCL2:BIM complex; assay: PRIMAB intra-cellular immunofluorescent staining and flow cytometry in U2932 cells (FIG. 19); assay type: cell-based; parameters: endogenous in cells; host or cells: U2932; settings: BCL2 primed U2932 cells
From the text: These shifts match BH3 mimetic selectivity.

Structure (SMILES): CN(CCO)CC[C@H](CSc1ccccc1)Nc1ccc(S(=O)(=O)NC(=O)c2ccc(N3CCC([C@@H](O)c4ccccc4-c4ccc(Cl)cc4)CC3)cc2)cc1S(=O)(=O)C(F)(F)F [AZD4320]
ratio of complex/monomer signal [1]: shift from the BCL2:BIM complex to the MCL-1:BIM complex

priming complex shift by PRIMAB readout [2]: BCLXL: BIM shift
Structure (SMILES): CN(C)CC#Cc1ccc(OCCCc2sc(N3CCc4cccc(C(=O)Nc5nc6ccccc6s5)c4C3)nc2C(=O)O)c(F)c1 [A1155463]
ratio of measured heterodimer to monomer [3]: shift and “priming” to MCL1:BIM complex | ratio of measured heterodimer to monomer [4]: shift and “priming” to MCL1:BIM complex

priming complex shift by PRIMAB readout [5]: disruption of BCL2: BIM complex
Structure (SMILES): CC1(C)CCC(CN2CCN(c3ccc(C(=O)NS(=O)(=O)c4ccc(NCC5CCOCC5)c([N+](=O)[O-])c4)c(Oc4cnc5[nH]ccc5c4)c3)CC2)=C(c2ccc(Cl)cc2)C1 [ABT-199]
